ChEMBL document CHEMBL5625223 (Eur J Med Chem, 2023)
Activity calls are given as the source filed them. The calls are words filed in the database; no cut-off is given here.

Tests used:
[1] = biological target: T1, 5-hydroxytryptamine receptor 2B (Homo sapiens, UniProt P41595); assay: Displacement of [3H]-LSD from human 5-HT2B receptor expressed in HEK cells at 10 uM incubated for 1 hr relative to control; type: cell-based
[2] = biological target: T2, Adenosine receptor A1 (Homo sapiens) (UniProt P30542); assay: Displacement of […] from human A1AR expressed in Flp-In-T-REx-293 cells at 1 uM relative to control; type: cell-based; conditions: filed as agonist
T2 sequence (whole entry): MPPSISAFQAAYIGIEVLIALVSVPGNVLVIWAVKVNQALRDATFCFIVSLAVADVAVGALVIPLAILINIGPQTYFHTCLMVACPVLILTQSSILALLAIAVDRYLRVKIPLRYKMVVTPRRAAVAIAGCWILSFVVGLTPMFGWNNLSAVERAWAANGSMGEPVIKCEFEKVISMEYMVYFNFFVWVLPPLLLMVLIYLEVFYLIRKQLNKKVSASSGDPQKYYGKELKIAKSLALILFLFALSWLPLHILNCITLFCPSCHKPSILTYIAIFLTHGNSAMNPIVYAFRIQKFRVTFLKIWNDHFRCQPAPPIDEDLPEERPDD

[3] = biological target: T3, Adenosine receptor A1 (Homo sapiens, UniProt P30542); assay: Displacement of […] from human A1AR expressed in Flp-In-T-REx-293 cells assessed as inhibition constant; type: cell-based
T3 sequence (P30542 whole entry): T2 sequence (whole entry)

[4] = biological target: T4, Adenosine receptor A3 (Homo sapiens) (UniProt P0DMS8); assay: Displacement of […] from human A3AR expressed in HEK cells at 10 uM relative to control; type: cell-based; conditions: filed as agonist
T4 sequence (whole entry): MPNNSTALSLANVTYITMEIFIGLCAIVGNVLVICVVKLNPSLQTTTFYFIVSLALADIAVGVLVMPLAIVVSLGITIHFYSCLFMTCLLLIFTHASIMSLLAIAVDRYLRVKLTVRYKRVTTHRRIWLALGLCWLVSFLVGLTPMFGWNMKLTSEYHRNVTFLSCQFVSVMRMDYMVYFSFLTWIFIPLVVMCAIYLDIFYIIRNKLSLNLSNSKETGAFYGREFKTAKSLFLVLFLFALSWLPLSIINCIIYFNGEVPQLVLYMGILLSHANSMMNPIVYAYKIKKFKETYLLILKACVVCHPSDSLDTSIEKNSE

[5] = biological target: T5, 5-hydroxytryptamine receptor 2A (Homo sapiens, UniProt P28223); assay: Displacement of [3H]ketanserin from human 5-HT2A receptor expressed in HEK293 cells at 10 uM incubated for 1 hr relative to control; type: cell-based
T5 sequence (P28223 whole entry): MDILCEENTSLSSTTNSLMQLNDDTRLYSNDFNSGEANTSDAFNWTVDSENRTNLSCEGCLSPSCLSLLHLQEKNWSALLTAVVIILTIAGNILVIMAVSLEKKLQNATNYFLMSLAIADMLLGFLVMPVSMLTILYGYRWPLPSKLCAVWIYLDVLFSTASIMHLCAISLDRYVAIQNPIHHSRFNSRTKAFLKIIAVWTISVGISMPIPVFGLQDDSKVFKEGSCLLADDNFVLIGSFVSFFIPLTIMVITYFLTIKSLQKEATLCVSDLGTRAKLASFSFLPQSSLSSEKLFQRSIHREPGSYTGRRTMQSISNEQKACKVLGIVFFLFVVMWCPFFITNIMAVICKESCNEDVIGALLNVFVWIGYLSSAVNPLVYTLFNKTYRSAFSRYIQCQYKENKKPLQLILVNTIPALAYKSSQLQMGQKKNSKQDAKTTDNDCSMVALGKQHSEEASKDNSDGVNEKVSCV

[6] = biological target: T6, 5-hydroxytryptamine receptor 2C (Homo sapiens, UniProt P28335); assay: Displacement of [3H]-Mesulergine from human 5-HT2C expressed in Flp-In-T-REx-293 cells assessed as inhibition constant incubated for 1 hr; type: cell-based; conditions: read-out: Ki
T6 sequence (P28335 whole entry): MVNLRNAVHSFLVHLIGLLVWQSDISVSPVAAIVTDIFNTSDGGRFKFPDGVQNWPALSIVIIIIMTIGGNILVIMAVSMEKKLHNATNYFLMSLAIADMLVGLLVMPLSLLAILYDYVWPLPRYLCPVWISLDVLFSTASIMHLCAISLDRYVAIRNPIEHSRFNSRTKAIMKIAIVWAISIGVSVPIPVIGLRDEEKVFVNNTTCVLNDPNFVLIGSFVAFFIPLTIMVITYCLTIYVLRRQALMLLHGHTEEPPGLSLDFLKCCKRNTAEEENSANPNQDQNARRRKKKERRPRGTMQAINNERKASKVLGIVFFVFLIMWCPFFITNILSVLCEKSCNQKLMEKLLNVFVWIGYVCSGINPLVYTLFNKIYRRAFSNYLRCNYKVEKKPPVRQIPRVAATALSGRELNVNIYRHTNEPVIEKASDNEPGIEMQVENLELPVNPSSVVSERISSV

[7] = biological target: T7, 5-hydroxytryptamine receptor 2C (Homo sapiens) (UniProt P28335); conditions: Flp-In-T-REx-293, filed as antagonist, time 1.0 hrs
T7 sequence (whole entry): T6 sequence (P28335 whole entry)

[8] = biological target: T5, 5-hydroxytryptamine receptor 2A; conditions: Flp-In-T-REx-293, time 1.0 hrs
[9] = biological target: Histamine H1 receptor (Homo sapiens, UniProt P35367); assay: Binding affinity to histamine H1 receptor (unknown origin) assessed as inhibition constant
Histamine H1 receptor, sequence (P35367 whole entry): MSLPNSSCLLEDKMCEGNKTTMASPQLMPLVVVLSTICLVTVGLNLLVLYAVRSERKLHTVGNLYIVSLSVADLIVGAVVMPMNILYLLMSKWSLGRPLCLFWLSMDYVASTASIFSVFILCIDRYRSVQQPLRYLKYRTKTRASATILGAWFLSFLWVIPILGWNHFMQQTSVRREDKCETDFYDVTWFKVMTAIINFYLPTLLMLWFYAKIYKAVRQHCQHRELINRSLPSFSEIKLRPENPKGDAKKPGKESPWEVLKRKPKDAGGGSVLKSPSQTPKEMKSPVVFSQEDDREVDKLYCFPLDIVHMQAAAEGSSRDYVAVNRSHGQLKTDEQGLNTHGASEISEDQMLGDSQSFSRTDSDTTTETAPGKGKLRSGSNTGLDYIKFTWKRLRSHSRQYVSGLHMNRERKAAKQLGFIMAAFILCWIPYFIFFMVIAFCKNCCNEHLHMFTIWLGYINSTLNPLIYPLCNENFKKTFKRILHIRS

[10] = biological target: T1, 5-hydroxytryptamine receptor 2B; conditions: Flp-In-T-REx-293, filed as antagonist, time 1.0 hrs
[11] = biological target: T1, 5-hydroxytryptamine receptor 2B; assay: Agonist activity at human 5HT2B receptor expressed in human Flp-In-293 cells assessed as Gq-mediated calcium flux measured for 60 mins by BRET assay; type: functional, cell-based
[12] = biological target: T1, 5-hydroxytryptamine receptor 2B; assay: Agonist activity at human 5HT2B receptor expressed in human Flp-In-293 cells assessed as beta-arrestin2 recruitment measured for 60 mins by BRET assay; type: functional, cell-based
[13] = biological target: Adenosine receptor A2a (Homo sapiens) (UniProt P29274); assay: Displacement of […] from human A2AR expressed in HEK cells at 10 uM relative to control; type: cell-based
Adenosine receptor A2a (Homo sapiens), sequence (P29274 whole entry): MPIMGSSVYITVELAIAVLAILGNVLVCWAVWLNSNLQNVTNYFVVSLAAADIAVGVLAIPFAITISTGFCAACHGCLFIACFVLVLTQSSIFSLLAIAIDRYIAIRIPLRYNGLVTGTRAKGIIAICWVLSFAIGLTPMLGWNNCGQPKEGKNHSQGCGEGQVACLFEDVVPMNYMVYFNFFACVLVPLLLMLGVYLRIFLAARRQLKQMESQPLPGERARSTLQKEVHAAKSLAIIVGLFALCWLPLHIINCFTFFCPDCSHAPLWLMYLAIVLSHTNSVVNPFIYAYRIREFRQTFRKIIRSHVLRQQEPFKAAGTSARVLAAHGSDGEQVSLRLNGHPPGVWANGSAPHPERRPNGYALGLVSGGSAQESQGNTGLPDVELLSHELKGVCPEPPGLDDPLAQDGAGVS

[14] = biological target: T1, 5-hydroxytryptamine receptor 2B; assay: Displacement of [3H]-LSD from human 5-HT2B receptor expressed in HEK cells assessed as inhibition constant incubated for 1 hr; type: cell-based
[15] = species on record: Homo sapiens; assay: Selectivity ratio of Kb for antagonist activity at human 5HT2B receptor to Kb for antagonist activity at human 5HT2C receptor
[16] = biological target: T1, 5-hydroxytryptamine receptor 2B; assay: Agonist activity at human 5HT2B receptor expressed in human Flp-In-293 cells assessed as beta-arrestin1 recruitment measured for 60 mins by BRET assay; type: functional, cell-based
[17] = biological target: Mu-type opioid receptor (Homo sapiens, UniProt P35372); assay: Binding affinity to MOR (unknown origin) assessed as inhibition constant
Mu-type opioid receptor, sequence (P35372 whole entry): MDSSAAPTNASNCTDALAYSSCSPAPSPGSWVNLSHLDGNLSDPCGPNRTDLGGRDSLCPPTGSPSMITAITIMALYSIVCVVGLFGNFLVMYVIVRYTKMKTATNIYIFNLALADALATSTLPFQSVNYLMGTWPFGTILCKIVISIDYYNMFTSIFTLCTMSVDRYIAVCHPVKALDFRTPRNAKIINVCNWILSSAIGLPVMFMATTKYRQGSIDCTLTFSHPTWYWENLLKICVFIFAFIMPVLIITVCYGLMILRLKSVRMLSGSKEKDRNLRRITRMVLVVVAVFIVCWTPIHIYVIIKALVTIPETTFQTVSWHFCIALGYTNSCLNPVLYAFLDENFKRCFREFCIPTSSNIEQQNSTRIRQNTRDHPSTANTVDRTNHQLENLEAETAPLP

[18] = biological target: 5-hydroxytryptamine receptor 1D (Homo sapiens, UniProt P28221); assay: Binding affinity to 5HT1D receptor (unknown origin) assessed as inhibition constant
5-hydroxytryptamine receptor 1D, sequence (P28221 whole entry): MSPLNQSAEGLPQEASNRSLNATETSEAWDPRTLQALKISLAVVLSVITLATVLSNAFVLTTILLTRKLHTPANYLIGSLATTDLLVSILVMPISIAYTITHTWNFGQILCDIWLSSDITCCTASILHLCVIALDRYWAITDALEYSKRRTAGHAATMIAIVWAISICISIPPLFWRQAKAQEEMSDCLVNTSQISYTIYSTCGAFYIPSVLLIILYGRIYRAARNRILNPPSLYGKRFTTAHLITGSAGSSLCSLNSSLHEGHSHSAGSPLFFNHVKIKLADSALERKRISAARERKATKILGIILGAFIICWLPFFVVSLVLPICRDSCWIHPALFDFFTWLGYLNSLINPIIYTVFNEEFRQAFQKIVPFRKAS

[19] = biological target: T5, 5-hydroxytryptamine receptor 2A; assay: Displacement of [3H]ketanserin from human 5-HT2A receptor expressed in HEK293 cells at 10 uM incubated for 1 hr; type: cell-based
[20] = biological target: T8, Alpha-2C adrenergic receptor (Homo sapiens, UniProt P18825); assay: Binding affinity to alpha2C receptor (unknown origin) assessed as inhibition constant
T8 sequence (P18825 whole entry): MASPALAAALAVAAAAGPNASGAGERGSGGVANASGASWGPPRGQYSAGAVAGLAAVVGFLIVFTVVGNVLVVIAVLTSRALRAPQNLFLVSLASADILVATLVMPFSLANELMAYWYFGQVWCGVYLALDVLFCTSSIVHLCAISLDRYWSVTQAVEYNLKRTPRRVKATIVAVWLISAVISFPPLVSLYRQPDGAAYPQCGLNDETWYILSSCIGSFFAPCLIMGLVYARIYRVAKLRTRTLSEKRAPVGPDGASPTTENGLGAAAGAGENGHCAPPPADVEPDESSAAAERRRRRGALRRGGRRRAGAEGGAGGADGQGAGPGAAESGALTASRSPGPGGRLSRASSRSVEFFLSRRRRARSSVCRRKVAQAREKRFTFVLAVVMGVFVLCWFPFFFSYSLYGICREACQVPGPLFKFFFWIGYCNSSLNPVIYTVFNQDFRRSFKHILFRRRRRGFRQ

[21] = biological target: T9, Adenosine receptor A3 (Homo sapiens, UniProt P0DMS8); assay: Displacement of […] from human A3AR expressed in HEK cells assessed as inhibition constant; type: cell-based
T9 sequence (P0DMS8 whole entry): T4 sequence (whole entry)

[22] = biological target: Sodium-dependent dopamine transporter (Homo sapiens, UniProt Q01959); assay: Binding affinity to DAT (unknown origin) assessed as inhibition constant
Sodium-dependent dopamine transporter, sequence (Q01959 whole entry): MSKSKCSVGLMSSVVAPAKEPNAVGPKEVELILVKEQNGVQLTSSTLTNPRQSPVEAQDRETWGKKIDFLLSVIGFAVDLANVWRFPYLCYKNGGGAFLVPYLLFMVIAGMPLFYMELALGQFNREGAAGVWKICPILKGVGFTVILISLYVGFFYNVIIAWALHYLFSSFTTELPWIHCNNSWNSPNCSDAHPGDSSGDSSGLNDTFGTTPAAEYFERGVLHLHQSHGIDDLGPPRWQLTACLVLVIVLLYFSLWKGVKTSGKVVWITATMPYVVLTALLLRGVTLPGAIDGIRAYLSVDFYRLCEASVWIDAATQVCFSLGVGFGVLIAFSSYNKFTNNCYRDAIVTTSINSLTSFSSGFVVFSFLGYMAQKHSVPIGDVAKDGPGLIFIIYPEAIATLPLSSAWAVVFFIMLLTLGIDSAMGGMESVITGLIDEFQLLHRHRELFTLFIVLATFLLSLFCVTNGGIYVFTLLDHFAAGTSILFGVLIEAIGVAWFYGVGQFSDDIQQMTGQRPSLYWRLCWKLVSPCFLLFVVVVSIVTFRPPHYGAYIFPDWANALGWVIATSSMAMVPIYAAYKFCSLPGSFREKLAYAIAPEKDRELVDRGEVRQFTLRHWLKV

[23] = biological target: T10, Alpha-2B adrenergic receptor (Homo sapiens, UniProt P18089); assay: Binding affinity to alpha2B receptor (unknown origin) assessed as inhibition constant
T10 sequence (P18089 whole entry): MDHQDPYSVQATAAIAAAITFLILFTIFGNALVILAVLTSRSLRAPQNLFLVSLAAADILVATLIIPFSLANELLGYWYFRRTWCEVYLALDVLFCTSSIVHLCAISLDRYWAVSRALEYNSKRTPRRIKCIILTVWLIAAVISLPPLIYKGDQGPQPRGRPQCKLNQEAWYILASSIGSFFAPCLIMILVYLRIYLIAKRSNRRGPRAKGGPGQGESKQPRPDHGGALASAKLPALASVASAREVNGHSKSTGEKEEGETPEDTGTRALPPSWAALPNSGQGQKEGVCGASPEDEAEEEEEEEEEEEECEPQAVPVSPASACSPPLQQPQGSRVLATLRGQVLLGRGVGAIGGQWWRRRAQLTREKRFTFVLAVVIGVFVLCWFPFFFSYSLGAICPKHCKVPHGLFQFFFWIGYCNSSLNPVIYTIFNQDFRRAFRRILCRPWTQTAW

[24] = biological target: T7, 5-hydroxytryptamine receptor 2C (Homo sapiens); assay: Displacement of [3H]-Mesulergine from human 5-HT2C expressed in Flp-In-T-REx-293 cells at 10 uM incubated for 1 hr relative to control; type: cell-based; conditions: filed as antagonist
[25] = biological target: T5, 5-hydroxytryptamine receptor 2A; assay: Binding affinity to 5HT2A receptor (unknown origin) at 10 uM relative to control
[26] = biological target: T1, 5-hydroxytryptamine receptor 2B; assay: Binding affinity to 5HT2B receptor (unknown origin) at 10 uM relative to control; conditions: filed as antagonist

T1 sequence (P41595 whole entry): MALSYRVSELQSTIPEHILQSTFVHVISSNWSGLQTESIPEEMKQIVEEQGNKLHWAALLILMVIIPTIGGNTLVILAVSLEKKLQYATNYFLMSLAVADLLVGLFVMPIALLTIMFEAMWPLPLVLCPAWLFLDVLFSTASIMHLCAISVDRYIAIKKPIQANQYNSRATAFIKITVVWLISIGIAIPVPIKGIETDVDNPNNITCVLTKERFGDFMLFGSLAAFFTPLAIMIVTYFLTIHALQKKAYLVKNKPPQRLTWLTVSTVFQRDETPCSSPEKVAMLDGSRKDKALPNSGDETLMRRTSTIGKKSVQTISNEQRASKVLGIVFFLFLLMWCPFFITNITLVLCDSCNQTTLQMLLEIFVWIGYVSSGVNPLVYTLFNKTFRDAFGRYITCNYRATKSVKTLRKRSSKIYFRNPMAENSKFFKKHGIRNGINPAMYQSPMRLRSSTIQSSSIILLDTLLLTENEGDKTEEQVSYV

`Clc1nc(NCC2CC2)c2nc[nH]c2n1` was tested, and the Activity [1] was 29% and the Activity [2] was 49%.

For `OC[C@@]12C[C@@H]1[C@@H](n1cnc3c(N[C@@H](C4CCC4)C4CC4)nc(I)nc31)[C@H](O)[C@@H]2O`, the Ki [3] was 63.9 nM, the Activity [4] was 42% and the Activity [5] was 26%. The Ki [6] was 552 nM, the pKb [7] was 6.83 and the pKb [8] was less than 5. The Ki [9] was 2100 nM.

In the case of `CCOC(=O)[C@@]12C[C@@H]1[C@@H](n1cnc3c(N[C@H](C4CCC4)C4CC4)nc(I)nc31)[C@H](O)[C@@H]2O`, the pKb [10] is reported as 8.76, the Activity [11] is reported as “inactive” and the Ki [3] is reported as 2180 nM. For the same compound, the Activity [4] was 83%, the Activity [5] was 13% and the Activity [12] was “inactive”. For the same compound, the Activity [13] was 15%, the Ki [6] was 331 nM and the Ki [14] was 33 nM. It also gave a pKb [7] of 7.11, a pKb [8] of less than 5 and a Ratio [15] of 44.7. For the same compound, the Activity [16] was “inactive”.

`O[C@H]1[C@H](n2cnc3c(NC(C4CCCC4)C4CCCC4)nc(Cl)nc32)[C@H]2C[C@@]2(CCl)[C@H]1O` gave a Ki [17] of 5700 nM, a Ki [3] of 529 nM and a Ki [18] of 6500 nM. For the same compound, the Activity [13] was 36%, the Ki [19] was 6470 nM and the Ki [20] was 2500 nM. The Ki [21] was 8260 nM.

For `OC[C@@]12C[C@@H]1[C@@H](n1cnc3c(NC(C4CCCC4)C4CCCC4)nc(Cl)nc31)[C@H](O)[C@@H]2O`, the Ki [22] was 3900 nM, the Activity [5] was 1% and the Activity [13] was -12%.

`CSC[C@@]12C[C@@H]1[C@@H](n1cnc3c(NC(C4CCCC4)C4CCCC4)nc(SC)nc31)[C@H](O)[C@@H]2O` was tested, and the Activity [13] was -60%, the Ki [19] was 9300 nM and the Ki [14] was 222 nM. It also gave a Ki [23] of 1200 nM, a Ki [21] of 6620 nM and an Activity [24] of 49%.

`OC[C@H]1O[C@@H](n2cnc3c(NC(C4CCC4)C4CCC4)nc(Cl)nc32)[C@H](O)[C@@H]1O` was tested, and the Activity [25] was 31% and the Activity [26] was 47%.
